According to patent publication US20250090513A1, “DOSING REGIMEN OF HIV CAPSID INHIBITOR” (Gilead Sciences, Inc., priority 2023, published 2025):

Test system: HIV-1
Experiment: Trough LEN concentration associated with antiviral activity (inhibitory quotient-4)
Settings: IQ4 threshold / efficacy target
Text: Lenacapavir (LEN) is currently approved for the treatment of multidrug-resistant HIV-1 infection in combination with other antiretrovirals for heavily treatment-experienced (HTE) individuals. […] Given the importance of oral loading doses in achieving and maintaining concentrations >IQ4, options to make up for missed oral loading doses were considered. A population-pharmacokinetic (PopPK) model was utilized to simulate various dosing scenarios to guide missed oral loading-dose recommendations for the HTE population.

SMILES: CC(C)(C#Cc1ccc(-c2ccc(Cl)c3c(NS(C)(=O)=O)nn(CC(F)(F)F)c23)c([C@H](Cc2cc(F)cc(F)c2)NC(=O)Cn2nc(C(F)(F)F)c3c2C(F)(F)[C@@H]2C[C@H]32)n1)S(C)(=O)=O [LEN, N-((S)-1-(3-(4-chloro-3-(methylsulfonamido)-1-(2,2,2-trifluoroethyl)-1H-indazol-7-yl)-6-(3-methyl-3-(methylsulfonyl)but-1-yn-1-yl)pyridin-2-yl)-2-(3,5-difluorophenyl)ethyl)-2-((3bS,4aR)-5,5-difluoro-3-(trifluoromethyl)-3b,4,4a,5-tetrahydro-1H-cyclopropa [3,4]cyclopenta [1,2-c]pyrazol-1-yl) acetamide]
- mean trough LEN concentration associated with high antiviral activity (inhibitory quotient-4 [IQ4]): 15.5 ng/mL
